Test results reported in patent publication US20160108049A1 (TAKEDA Gmbh, priority 2011, published 2016).

What was measured:
human PDE5 = biological target: T1, human PDE5 (Homo sapiens, UniProt O76074); test: Inhibition of PDE5 activity (platelet lysate, SPA assay); format: biochemical; conditions: 0.5 μM cGMP, read-out: PDE5 Inhibitory values measured as -logIC50 (converted)
T1 construct: from tissue; host or cells: human platelets from fresh donor blood (platelet lysate)
Description: Method for Measuring Inhibition of PDE5 Activity
As a source for human PDE5, platelets were used. For that purpose, 150 ml fresh blood from human donors anticoagulated with citrate [final concentration 0.3% (w/v)] was centrifuged at 200 g for 10 min to obtain the so-called platelet-rich-plasma (PRP) as a supernatant. […] After centrifugation (1,400 g, 10 min) the cell pellet was resuspended in 3 ml homogenization buffer (NaCl 140 mM, KCl 3.8 mM, EGTA (ethylene glycol tetraacetic acid) 1 mM, MgCl2 1 mM, Tris-HCl 20 mM, beta-mercaptoethanol 1 mM, pH 8.2) plus protease-inhibitor mix resulting in final concentrations of 0.5 mM Pefablock (Roche), 10 μM Leupeptin, 5 μM Trypsine inhibitor, 2 mM Benzamidin and 10 μM Pepstatin A. The suspension was sonicated and thereafter centrifuged for 15 min at 10,000 g. The resulting supernatant (platelet lysate) was used for enzymatic assays.
PDE5 activities were measured in a 96-well platform using SPA (scintillation proximity assay) yttrium silicate beads (RPNQ1050 from GE Healthcare). In a first step the PDE activity operated hydrolysis of either [^3H] cGMP (substrate) into [^3H] 5′GMP. In a second step substrate and product were distinguished following addition of SPA yttrium silicate beads. Indeed, in the presence of zinc sulphate the linear [^3H] […] Close proximity of bound [^3H] […] The test volume was 100 μl and contained 20 mM Tris buffer (pH 7.4), 0.1 mg of BSA (bovine serum albumin)/ml, 5 mM Mg^2+, 1 μM motapizone (PDE3 Inhibitor), 10 nM PDE2 inhibitor 2-(3,4-dimethoxybenzyl)-7-[(1R,2R)-2-hydroxy-1-(2-phenylethyl)propyl]-5-methylimidazo[5,1-f][1,2,4]triazin-4(3H)-one, 0.5 μM cGMP (cyclic guanosine monophosphate) (including about 50,000 cpm of [3H]cGMP as a tracer) (substrate), 1 μl of the respective compound dilution in dimethylsulfoxide (DMSO) and sufficient PDE5-containing platelet lysat (10,000×g supernatant, see above) to ensure that 10-20% of the cGMP was converted under the said experimental conditions. […] After a preincubation of 5 min at 37° C., the reaction was commenced by adding the substrate (cGMP) and the assay was incubated for a further 15 min. The reaction was terminated by adding SPA beads (50 μl). In agreement with the manufacturer's instructions, the SPA beads had previously been resuspended in water, but were then diluted 1:3 (v/v) in water. This diluted solution also contained 3 mM 8-methoxymethyl-3-isobutyl-1-methylxanthine (IBMX) to ensure a complete block of PDE activity. Once the beads were sedimented (>30 min), the MTP's were analyzed in commercially available luminescence detection devices. The corresponding IC50 values of the compounds for inhibition of PDE activity were determined from the concentration-effect curves by means of non-linear regression.
(§1) The numbers of the compounds correspond to the numbers of the examples.

PDE4B1 = biological target: T2, PDE4B1 (Homo sapiens, UniProt Q07343); test: Inhibition of PDE4 activity (PDE4B1, SPA assay); format: biochemical; conditions: recombinant PDE4B1, 0.5 μM cAMP; read-out: PDE4B1 Inhibitory values measured as -logIC50 (converted)
T2 construct: made in house; host or cells: SF21 insect cells (baculovirus; virus made in SF9 cells, pCR-Bac vector)
T2 sequence (Q07343 whole entry): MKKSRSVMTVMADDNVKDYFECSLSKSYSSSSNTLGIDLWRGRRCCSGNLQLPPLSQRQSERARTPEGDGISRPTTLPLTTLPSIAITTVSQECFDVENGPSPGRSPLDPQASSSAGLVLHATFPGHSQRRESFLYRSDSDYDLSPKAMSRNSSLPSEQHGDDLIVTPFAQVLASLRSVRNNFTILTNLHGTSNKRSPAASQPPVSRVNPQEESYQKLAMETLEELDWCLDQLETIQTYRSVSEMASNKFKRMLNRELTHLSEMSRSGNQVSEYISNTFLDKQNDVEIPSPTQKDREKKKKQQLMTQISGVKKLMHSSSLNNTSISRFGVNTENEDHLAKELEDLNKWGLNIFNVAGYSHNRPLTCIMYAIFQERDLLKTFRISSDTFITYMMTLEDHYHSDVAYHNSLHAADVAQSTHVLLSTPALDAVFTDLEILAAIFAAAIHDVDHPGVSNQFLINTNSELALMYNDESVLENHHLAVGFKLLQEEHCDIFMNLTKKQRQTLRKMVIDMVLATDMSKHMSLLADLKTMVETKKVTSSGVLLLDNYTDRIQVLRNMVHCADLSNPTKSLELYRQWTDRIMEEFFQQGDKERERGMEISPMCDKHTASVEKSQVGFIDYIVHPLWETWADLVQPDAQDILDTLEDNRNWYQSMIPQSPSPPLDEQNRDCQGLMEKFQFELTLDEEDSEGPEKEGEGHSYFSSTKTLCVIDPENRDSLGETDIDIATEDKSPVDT
Description: Method for Measuring Inhibition of PDE4 Activity
The PDE4B1 (GB no. L20966) was a gift of Prof. M. Conti (Stanford University, USA). It was amplified from the original plasmid (pCMV5) via PCR with primers Rb18 (5′-[…]-3′) and Rb10 (5′-[…]-3′) and cloned into the pCR-Bac vector (Invitrogen, Groningen, NL).
The recombinant baculovirus was prepared by means of homologous recombination in SF9 insect cells. The expression plasmids were cotransfected with Baculo-Gold DNA (Pharmingen, Hamburg) using a standard protocol (Pharmingen, Hamburg). Wt virus-free recombinant virus supernatants were selected using plaque assay methods. After that, high-titre virus supernatants were prepared by amplifying 3 times. PDE4B1 was expressed in SF21 cells by infecting 2×10^6 cells/ml with an MOI (multiplicity of infection) between 1 and 10 in the serum-free SF900 medium (GIBCO Life Technologies, Karlsruhe, Germany) The cells were cultured at 28° C. for 48-72 hours, after which they were pelleted for 5-10 min at 1000×g and 4° C.
The SF21 insect cells were resuspended, at a concentration of approx. 10^7 cells/ml, in ice-cold (4° C.) homogenization buffer (20 mM Tris, pH 8.2, containing the following additions: 140 mM NaCl, 3.8 mM KCl, 1 mM EGTA, 1 mM MgCl2, 10 mM β-mercaptoethanol, 2 mM benzamidine, 0.4 mM Pefablock, 10 μM leupeptin, 10 μM pepstatin A, 5 μM trypsin inhibitor) and disrupted by ultrasonication. The homogenate was then centrifuged for 10 min at 1000×g and the supernatant was stored at −80° C. until subsequent use (see below). The protein content was determined by the Bradford method (BioRad, Munich) using BSA (Bovine serum albumin) as the standard.
PDE4B1 activities were measured in a 96-well platform using SPA (scintillation proximity assay) yttrium silicate beads (RPNQ1050 from GE Healthcare). In a first step the PDE activity operated hydrolysis of either [^3H] cAMP (substrate) into […]. In a second step substrate and product were distinguished following addition of SPA yttrium silicate beads. […] Close proximity of bound [^3H] […] The test volume was 100 μl and finally contained 20 mM Tris buffer (pH 7.4), 0.1 mg/ml of BSA, 5 mM Mg^2+, 0.5 μM cAMP (including about 50,000 cpm of [3H]cAMP) as substrate, 1 μl of the respective substance dilution in DMSO and sufficient recombinant PDE (1000×g supernatant, see above) to ensure that 10-20% of the cAMP was converted under the said experimental conditions. […] After a preincubation of 5 min at 37° C., the reaction was commenced by adding the substrate (cAMP) and the assays were incubated for a further 15 min. Reactions were terminated by adding SPA beads (50 μl). In agreement with the manufacturer's instructions, the SPA beads had previously been resuspended in water, but were then diluted 1:3 (v/v) in water. This diluted solution further contained 3 mM IBMX (isobutylmethylxanthine) to ensure a complete block of PDE activity. Once the beads were sedimented (>30 min), the MTP's (micro titerplate) were analyzed in commercially available […]. The corresponding IC50 values of the compounds for inhibition of PDE4B1 activity were determined from the concentration-effect curves by means of non-linear regression.
as §1

Row | SMILES | IC50 (human PDE5) [nM] | IC50 (PDE4B1) [nM]
1 | COc1ccc(C2=NN(C3CCN(C(=O)[C@@H](Cc4cccc(C)c4)NC(=O)c4c(C)[nH]c5c(-c6c(OCC7CC7)ccc7c6OCO7)ncnc45)CC3)C(=O)[C@@H]3CCCC[C@H]23)cc1OC [Example 17, 4-[5-(cyclopropylmethoxy)-1,3-benzodioxol-4-yl]-N-[(2R)-1-{4-[(4aS,8aR)-4-(3,4-dimethoxyphenyl)-1-oxo-4a,5,6,7,8,8a-hexahydrophthalazin-2(1H)-yl]piperidin-1-yl}-3-(3-methylphenyl)-1-oxopropan-2-yl]-6-methyl-5H-pyrrolo[3,2-d]pyrimidine-7-carboxamide] | < 1 | < 1
2 | COc1ccc(C2=NN(C3CCN(C(=O)[C@H](Cc4ccc(O)cc4)NC(=O)c4c[nH]c5c(-c6c(OCC7CC7)ccc7c6OCO7)ncnc45)CC3)C(=O)[C@@H]3CCCC[C@H]23)cc1OC [Example 53, 4-[5-(cyclopropylmethoxy)-1,3-benzodioxol-4-yl]-N-[(2S)-1-{4-[(4aS,8aR)-4-(3,4-dimethoxyphenyl)-1-oxo-4a,5,6,7,8,8a-hexahydrophthalazin-2(1H)-yl]piperidin-1-yl}-3-(4-hydroxyphenyl)-1-oxopropan-2-yl]-5H-pyrrolo[3,2-d]pyrimidine-7-carboxamide] | 1 to 10 | < 1
3 | COc1ccc(C2=NN(C3CCN(C(=O)[C@@H](Cc4ccccc4)NC(=O)c4c(C)[nH]c5c(-c6c(OCC7CC7)ccc7c6OCO7)ncnc45)CC3)C(=O)[C@@H]3CCCC[C@H]23)cc1OC [Example 26, 4-[5-(cyclopropylmethoxy)-1,3-benzodioxol-4-yl]-N-[(2R)-1-{4-[(4aS,8aR)-4-(3,4-dimethoxyphenyl)-1-oxo-4a,5,6,7,8,8a-hexahydrophthalazin-2(1H)-yl]piperidin-1-yl}-1-oxo-3-phenylpropan-2-yl]-6-methyl-5H-pyrrolo[3,2-d]pyrimidine-7-carboxamide] | < 1 | 1 to 10
4 | COc1ccc(C2=NN(C3CCN(C(=O)[C@@H](C)NC(=O)c4c[nH]c5c(-c6c(OCC7CC7)ccc7c6OCO7)ncnc45)CC3)C(=O)[C@@H]3CCCC[C@H]23)cc1OC [Example 62, 4-[5-(cyclopropylmethoxy)-1,3-benzodioxol-4-yl]-N-[(2R)-1-{4-[(4aS,8aR)-4-(3,4-dimethoxyphenyl)-1-oxo-4a,5,6,7,8,8a-hexahydrophthalazin-2(1H)-yl]piperidin-1-yl}-1-oxopropan-2-yl]-5H-pyrrolo[3,2-d]pyrimidine-7-carboxamide] | 1 to 10 | < 1
5 | COc1cc(OCC2CC2)c(-c2ncnc3c(C(=O)N[C@H](Cc4ccc(C(C)(C)C)cc4)C(=O)N4CCC(N5N=C(c6ccc(OC)c(OC)c6)[C@H]6CCCC[C@H]6C5=O)CC4)c(C)[nH]c23)cc1F [Example 5, N-[(2R)-3-(4-tert-butylphenyl)-1-{4-[(4aS,8aR)-4-(3,4-dimethoxyphenyl)-1-oxo-4a,5,6,7,8,8a-hexahydrophthalazin-2(1H)-yl]piperidin-1-yl}-1-oxopropan-2-yl]-4-[2-(cyclopropylmethoxy)-5-fluoro-4-methoxyphenyl]-6-methyl-5H-pyrrolo[3,2-d]pyrimidine-7-carboxamide] | 1 to 10 | 1 to 10
6 | COc1ccc(C2=NN(C3CCN(C(=O)[C@@H](Cc4ccc(Br)cc4)NC(=O)c4c[nH]c5c(-c6c(OCC7CC7)ccc7c6OCO7)ncnc45)CC3)C(=O)[C@@H]3CCCC[C@H]23)cc1OC [Example 99, N-[(2R)-3-(4-bromophenyl)-1-{4-[(4aS,8aR)-4-(3,4-dimethoxyphenyl)-1-oxo-4a,5,6,7,8,8a-hexahydrophthalazin-2(1H)-yl]piperidin-1-yl}-1-oxopropan-2-yl]-4-[5-(cyclopropylmethoxy)-1,3-benzodioxol-4-yl]-5H-pyrrolo[3,2-d]pyrimidine-7-carboxamide] | 1 to 10 | 1 to 10
7 | COc1ccc(C2=NN(C3CCN(C(=O)CCNC(=O)c4c[nH]c5c(-c6c(OCC7CC7)ccc7c6OCO7)ncnc45)CC3)C(=O)[C@@H]3CCCC[C@H]23)cc1OC [Example 76, 4-[5-(cyclopropylmethoxy)-1,3-benzodioxol-4-yl]-N-(3-{4-[(4aS,8aR)-4-(3,4-dimethoxyphenyl)-1-oxo-4a,5,6,7,8,8a-hexahydrophthalazin-2(1H)-yl]piperidin-1-yl}-3-oxopropyl)-5H-pyrrolo[3,2-d]pyrimidine-7-carboxamide] | 1 to 10 | 1 to 10
8 | COc1cc(OCC2CC2)c(-c2ncnc3c(C(=O)N[C@H](Cc4ccccc4)C(=O)N4CCC(N5N=C(c6ccc(OC)c(OC)c6)CC(C)(C)C5=O)CC4)c[nH]c23)cc1F [Example 68, 4-[2-(cyclopropylmethoxy)-5-fluoro-4-methoxyphenyl]-N-[(2R)-1-{4-[3-(3,4-dimethoxyphenyl)-5,5-dimethyl-6-oxo-5,6-dihydropyridazin-1(4H)-yl]piperidin-1-yl}-1-oxo-3-phenylpropan-2-yl]-5H-pyrrolo[3,2-d]pyrimidine-7-carboxamide] | 1 to 10 | 1 to 10
9 | COc1ccc(C2=NN(C3CCN(C(=O)[C@H](Cc4cscn4)NC(=O)c4c(C)[nH]c5c(-c6c(OCC7CC7)ccc7c6OCO7)ncnc45)CC3)C(=O)[C@@H]3CCCC[C@H]23)cc1OC [Example 87, 4-[5-(cyclopropylmethoxy)-1,3-benzodioxol-4-yl]-N-[(2S)-1-{4-[(4aS,8aR)-4-(3,4-dimethoxyphenyl)-1-oxo-4a,5,6,7,8,8a-hexahydrophthalazin-2(1H)-yl]piperidin-1-yl}-1-oxo-3-(1,3-thiazol-4-yl)propan-2-yl]-6-methyl-5H-pyrrolo[3,2-d]pyrimidine-7-carboxamide] | < 1 | 
